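Each compound was tested at five concentrations against cells in 96-well plates for 48 hours. GI50 is the concentration that inhibits growth by half. TGI: total growth inhibition.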
Tests used:
Experiment in all cases: growth of human tumour cells (NCI), 48 h
A498 renal = tested on: A498 renal
ACHN renal = tested on: ACHN renal
BT-549 breast = tested on: BT-549 breast
CCRF-CEM leukemia = tested on: CCRF-CEM leukemia
COLO 205 colon = tested on: COLO 205 colon
DU-145 prostate = tested on: DU-145 prostate
EKVX NSCLC = tested on: EKVX NSCLC
HCC-2998 colon = tested on: HCC-2998 colon
HCT-15 colon = tested on: HCT-15 colon
HL-60(TB) leukemia = tested on: HL-60(TB) leukemia
HT29 colon = tested on: HT29 colon
IGROV1 ovarian = tested on: IGROV1 ovarian
K-562 leukemia = tested on: K-562 leukemia
KM12 colon = tested on: KM12 colon
LOX IMVI melanoma = tested on: LOX IMVI melanoma
M14 melanoma = tested on: M14 melanoma
MDA-MB-435 = tested on: MDA-MB-435
NCI-H522 lung = tested on: NCI-H522 lung
NCI/ADR-RES ovarian = tested on: NCI/ADR-RES ovarian
OVCAR-3 ovarian = tested on: OVCAR-3 ovarian
OVCAR-4 ovarian = tested on: OVCAR-4 ovarian
OVCAR-5 ovarian = tested on: OVCAR-5 ovarian
OVCAR-8 ovarian = tested on: OVCAR-8 ovarian
RXF 393 renal = tested on: RXF 393 renal
SF-268 CNS = tested on: SF-268 CNS
SF-295 CNS = tested on: SF-295 CNS
SK-MEL-2 melanoma = tested on: SK-MEL-2 melanoma
SK-MEL-28 melanoma = tested on: SK-MEL-28 melanoma
SK-MEL-5 melanoma = tested on: SK-MEL-5 melanoma
SN12C renal = tested on: SN12C renal
SNB-19 CNS = tested on: SNB-19 CNS
SW-620 colon = tested on: SW-620 colon
T-47D breast = tested on: T-47D breast
TK-10 renal = tested on: TK-10 renal
UACC-257 melanoma = tested on: UACC-257 melanoma
UO-31 renal = tested on: UO-31 renal

Q: With COc1ccc2[nH]cc(-c3cc(N)n4nc(-c5c[nH]c6ccc(OC)cc56)cc4n3)c2c1 as the compound, how does the GI50 (A498 renal) read?
A: 1.92 µM

Q: What about the TGI (A498 renal) of the same compound?
A: 3.86 µM

Q: And the GI50 (ACHN renal)?
A: 1.85 µM

Q: What about the TGI (ACHN renal) of the same compound?
A: 3.45 µM

Q: What about the GI50 (BT-549 breast) of the same compound?
A: 5.54 µM

Q: What about the TGI (BT-549 breast) of the same compound?
A: 21.2 µM

Q: And the GI50 (CCRF-CEM leukemia)?
A: 2.81 µM

Q: And the TGI (CCRF-CEM leukemia)?
A: 8.78 µM

Q: And the GI50 (COLO 205 colon)?
A: 1.65 µM

Q: And the TGI (COLO 205 colon)?
A: 3.13 µM

Q: What about the GI50 (DU-145 prostate) of the same compound?
A: 1.93 µM

Q: What about the TGI (DU-145 prostate) of the same compound?
A: 3.58 µM

Q: And the GI50 (EKVX NSCLC)?
A: 1.73 µM

Q: What about the TGI (EKVX NSCLC) of the same compound?
A: 3.58 µM

Q: And the GI50 (HCC-2998 colon)?
A: 1.97 µM

Q: What about the TGI (HCC-2998 colon) of the same compound?
A: 3.59 µM

Q: What about the GI50 (HCT-15 colon) of the same compound?
A: 1.99 µM

Q: And the TGI (HCT-15 colon)?
A: 4.98 µM

Q: And the GI50 (HL-60(TB) leukemia)?
A: 1.92 µM

Q: And the TGI (HL-60(TB) leukemia)?
A: 4.73 µM

Q: What about the GI50 (HT29 colon) of the same compound?
A: 1.79 µM

Q: What about the TGI (HT29 colon) of the same compound?
A: 3.34 µM

Q: What about the GI50 (IGROV1 ovarian) of the same compound?
A: 2.26 µM

Q: And the TGI (IGROV1 ovarian)?
A: 5.73 µM

Q: And the GI50 (K-562 leukemia)?
A: 2.4 µM

Q: And the TGI (K-562 leukemia)?
A: > 100 µM

Q: And the GI50 (KM12 colon)?
A: 1.88 µM

Q: What about the TGI (KM12 colon) of the same compound?
A: 3.59 µM

Q: And the GI50 (LOX IMVI melanoma)?
A: 2.23 µM

Q: And the TGI (LOX IMVI melanoma)?
A: 3.85 µM

Q: And the GI50 (M14 melanoma)?
A: 1.81 µM

Q: What about the TGI (M14 melanoma) of the same compound?
A: 3.38 µM

Q: What about the GI50 (MDA-MB-435) of the same compound?
A: 1.74 µM

Q: What about the TGI (MDA-MB-435) of the same compound?
A: 3.26 µM

Q: And the GI50 (NCI-H522 lung)?
A: 1.72 µM

Q: What about the TGI (NCI-H522 lung) of the same compound?
A: 3.32 µM

Q: And the GI50 (NCI/ADR-RES ovarian)?
A: 3.09 µM

Q: And the TGI (NCI/ADR-RES ovarian)?
A: 14.3 µM

Q: What about the GI50 (OVCAR-3 ovarian) of the same compound?
A: 1.95 µM

Q: What about the TGI (OVCAR-3 ovarian) of the same compound?
A: 3.83 µM

Q: And the GI50 (OVCAR-4 ovarian)?
A: 2.28 µM

Q: And the TGI (OVCAR-4 ovarian)?
A: 5.32 µM

Q: What about the GI50 (OVCAR-5 ovarian) of the same compound?
A: 2.44 µM

Q: And the TGI (OVCAR-5 ovarian)?
A: 6.31 µM

Q: What about the GI50 (OVCAR-8 ovarian) of the same compound?
A: 1.84 µM

Q: What about the TGI (OVCAR-8 ovarian) of the same compound?
A: 3.72 µM

Q: And the GI50 (RXF 393 renal)?
A: 1.67 µM

Q: And the TGI (RXF 393 renal)?
A: 3.23 µM

Q: And the GI50 (SF-268 CNS)?
A: 2.13 µM

Q: And the TGI (SF-268 CNS)?
A: 4.77 µM

Q: And the GI50 (SF-295 CNS)?
A: 1.87 µM

Q: And the TGI (SF-295 CNS)?
A: 3.49 µM

Q: And the GI50 (SK-MEL-2 melanoma)?
A: 1.79 µM

Q: And the TGI (SK-MEL-2 melanoma)?
A: 3.5 µM

Q: What about the GI50 (SK-MEL-28 melanoma) of the same compound?
A: 1.82 µM

Q: What about the TGI (SK-MEL-28 melanoma) of the same compound?
A: 3.31 µM

Q: And the GI50 (SK-MEL-5 melanoma)?
A: 1.7 µM

Q: What about the TGI (SK-MEL-5 melanoma) of the same compound?
A: 3.08 µM

Q: What about the GI50 (SN12C renal) of the same compound?
A: 1.98 µM

Q: What about the TGI (SN12C renal) of the same compound?
A: 3.91 µM

Q: And the GI50 (SNB-19 CNS)?
A: 3.25 µM

Q: What about the TGI (SNB-19 CNS) of the same compound?
A: 14.2 µM

Q: And the GI50 (SW-620 colon)?
A: 1.68 µM

Q: What about the TGI (SW-620 colon) of the same compound?
A: 3.26 µM

Q: What about the GI50 (T-47D breast) of the same compound?
A: 1.91 µM

Q: What about the TGI (T-47D breast) of the same compound?
A: 4.13 µM

Q: And the GI50 (TK-10 renal)?
A: 2.27 µM

Q: And the TGI (TK-10 renal)?
A: 5.23 µM

Q: And the GI50 (UACC-257 melanoma)?
A: 1.73 µM

Q: What about the TGI (UACC-257 melanoma) of the same compound?
A: 3.17 µM

Q: What about the GI50 (UO-31 renal) of the same compound?
A: 1.65 µM

Q: What about the TGI (UO-31 renal) of the same compound?
A: 3.55 µM

— PubChem BioAssay (NCI)
